Series [1] deals with Cytochrome P450 2E1 (Homo sapiens, UniProt P05181). The note with it: bti-tn-5b1-4.
The nature of series [2]: DRUGMATRIX: Phorbol Ester radioligand binding (ligand: [3H] PDBu). It is filed as cell membranes, Mus musculus, ICR, Brain, Membrane. The note with it: Not Active = under 50% inhibition at 10 µM.
Series [3] concerns the target T1, Thromboxane-A synthase (Homo sapiens, UniProt P24557).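 Note: enzyme inhibition assay with PGH2 supplied as substrate; in other assays of this panel Not Active means under 50% inhibition at 10 µM.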
T1 sequence (P24557 whole entry): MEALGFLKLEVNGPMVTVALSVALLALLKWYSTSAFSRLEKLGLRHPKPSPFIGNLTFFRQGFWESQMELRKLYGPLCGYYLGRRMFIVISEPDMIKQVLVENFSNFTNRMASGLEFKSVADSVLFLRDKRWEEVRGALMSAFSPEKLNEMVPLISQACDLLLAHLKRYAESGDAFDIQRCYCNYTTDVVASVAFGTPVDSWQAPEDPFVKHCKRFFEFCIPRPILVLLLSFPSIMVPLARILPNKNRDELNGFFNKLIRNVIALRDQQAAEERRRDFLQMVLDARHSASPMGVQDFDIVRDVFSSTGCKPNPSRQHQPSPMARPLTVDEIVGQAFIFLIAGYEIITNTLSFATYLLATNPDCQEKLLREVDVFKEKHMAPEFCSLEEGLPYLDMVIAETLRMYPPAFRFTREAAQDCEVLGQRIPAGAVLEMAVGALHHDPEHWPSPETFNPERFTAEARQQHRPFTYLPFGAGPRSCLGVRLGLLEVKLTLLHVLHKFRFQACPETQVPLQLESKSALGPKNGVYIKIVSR
The series is described as follows: biochemical. It counts as tissue-based, Platelet.

Series [4] has as its target Receptor tyrosine-protein kinase erbB-2 (Homo sapiens, UniProt P04626). Kind of series: biochemical. It counts as cell-based, Insect cells. The note with it: insect cells.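 Note: inhibition of HER2 kinase enzyme activity, measured with Poly(Glu:Tyr) as the phosphorylation substrate; in other assays of this panel Not Active means under 50% inhibition at 10 µM.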
Series [5] addresses Melanocortin receptor 5 (Homo sapiens, UniProt P33032). It counts as cell membranes, HEK293, Membrane. As to conditions: hek293.
The target of series [6] is T2, Caspase-1 (Homo sapiens, UniProt P29466).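 Note: Caspase-1 enzyme inhibition assay with a peptide substrate; in other assays of this panel Not Active means under 50% inhibition at 10 µM.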
T2 sequence (P29466 whole entry): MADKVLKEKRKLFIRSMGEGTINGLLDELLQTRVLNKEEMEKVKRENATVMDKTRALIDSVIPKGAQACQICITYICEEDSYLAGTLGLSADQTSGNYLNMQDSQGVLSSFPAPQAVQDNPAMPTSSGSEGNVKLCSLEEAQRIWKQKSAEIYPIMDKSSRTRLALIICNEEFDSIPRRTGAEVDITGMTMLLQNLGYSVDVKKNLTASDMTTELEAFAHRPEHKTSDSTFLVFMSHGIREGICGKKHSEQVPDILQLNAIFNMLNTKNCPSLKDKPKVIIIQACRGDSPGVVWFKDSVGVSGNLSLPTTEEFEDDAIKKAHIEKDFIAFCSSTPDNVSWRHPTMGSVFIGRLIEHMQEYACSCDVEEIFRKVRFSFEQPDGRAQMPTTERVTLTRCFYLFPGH
Details: species or system Escherichia coli.

Series [7] in a line: DRUGMATRIX: Calcium Channel Type L, Dihydropyridine radioligand binding (ligand: [3H] Nitrendipine). It is filed as cell membranes, Rattus norvegicus, Wistar, Cerebral cortex, Membrane. As to conditions: Not Active = under 50% inhibition at 10 µM.
The target in series [8] is T3, C-X-C chemokine receptor type 1 (Homo sapiens, UniProt P25024). Note: in other assays of this panel Not Active means under 50% inhibition at 10 µM.
T3 sequence (P25024 whole entry): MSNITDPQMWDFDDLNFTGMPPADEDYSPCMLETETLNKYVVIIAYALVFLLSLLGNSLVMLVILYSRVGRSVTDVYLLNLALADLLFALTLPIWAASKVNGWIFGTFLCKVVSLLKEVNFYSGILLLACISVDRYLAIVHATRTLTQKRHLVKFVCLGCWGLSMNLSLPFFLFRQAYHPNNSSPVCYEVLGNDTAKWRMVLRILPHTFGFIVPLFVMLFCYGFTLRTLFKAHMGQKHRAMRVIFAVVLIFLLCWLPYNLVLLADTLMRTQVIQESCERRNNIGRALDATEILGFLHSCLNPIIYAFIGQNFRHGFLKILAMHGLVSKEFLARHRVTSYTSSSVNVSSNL

Chain of Cytochrome P450 2E1 (P05181 whole entry): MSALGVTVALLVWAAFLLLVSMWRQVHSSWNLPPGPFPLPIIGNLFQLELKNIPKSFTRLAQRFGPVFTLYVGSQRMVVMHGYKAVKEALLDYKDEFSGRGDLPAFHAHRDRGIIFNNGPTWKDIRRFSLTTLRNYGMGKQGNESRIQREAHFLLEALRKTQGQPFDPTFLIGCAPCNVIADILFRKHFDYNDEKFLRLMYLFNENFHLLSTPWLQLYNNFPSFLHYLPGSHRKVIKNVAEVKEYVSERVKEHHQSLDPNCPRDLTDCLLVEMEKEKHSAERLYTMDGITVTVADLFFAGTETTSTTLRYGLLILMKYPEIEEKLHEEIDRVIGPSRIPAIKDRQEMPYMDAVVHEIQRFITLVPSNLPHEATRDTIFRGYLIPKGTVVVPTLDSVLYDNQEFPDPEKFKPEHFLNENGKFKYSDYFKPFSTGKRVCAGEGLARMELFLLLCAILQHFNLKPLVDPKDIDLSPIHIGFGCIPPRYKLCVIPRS
Chain of Melanocortin receptor 5 (P33032 whole entry): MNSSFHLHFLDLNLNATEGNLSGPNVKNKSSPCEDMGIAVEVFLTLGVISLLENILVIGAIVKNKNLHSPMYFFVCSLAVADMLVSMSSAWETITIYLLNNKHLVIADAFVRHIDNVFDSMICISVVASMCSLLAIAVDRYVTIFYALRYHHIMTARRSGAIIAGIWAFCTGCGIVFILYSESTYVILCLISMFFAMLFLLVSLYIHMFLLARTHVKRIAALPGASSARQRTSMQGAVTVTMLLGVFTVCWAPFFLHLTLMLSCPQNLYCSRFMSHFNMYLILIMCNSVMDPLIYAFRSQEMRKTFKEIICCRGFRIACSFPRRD

In the case of `CC(=O)O[C@H]1C[C@@H]2CC[C@@H]3[C@H](CC[C@@]4(C)[C@H]3C[C@H]([N+]3(C)CCCCC3)[C@@H]4OC(C)=O)[C@@]2(C)C[C@@H]1N1CCCCC1.[Br-]` [VECURONIUM BROMIDE], the IC50 entry in series [1], in series [2], in series [3] (platelet), in series [4], in series [5] and in series [6] was “Not Active” throughout. For the same compound, the IC50 result in series [7] and in series [8] was “Not Active” each time. For the same compound, the Ki result in series [1], in series [2] and in series [7] was “Not Active” in each case.
For `COc1cc(C(=O)NS(=O)(=O)c2ccccc2C)ccc1Cc1cn(C)c2ccc(NC(=O)OC3CCCC3)cc12` [ZAFIRLUKAST], the IC50 entry in series [1] is “Not Active”; in series [2], “Not Active”; in series [3] (read-out: IC50), 3.81 µM; in series [4], “Not Active”; in series [5], “Not Active”; in series [6], “Not Active”. Also, the half-maximal inhibitory concentration (IC50) result in series [7] and in series [8] was “Not Active” each time. The Ki result in series [1], in series [2] and in series [7] was “Not Active” in each case.
Regarding `Cc1cn([C@H]2C[C@H](N=[N+]=[N-])[C@@H](CO)O2)c(=O)[nH]c1=O` [ZIDOVUDINE], the IC50 result in series [1], in series [2], in series [3] (platelet), in series [4], in series [5] and in series [6] was “Not Active” throughout. Further, the IC50 result in series [7] and in series [8] was “Not Active” each time. In addition, the Ki entry in series [1], in series [2] and in series [7] was “Not Active” throughout.
On to STANNOUS FLUORIDE, for which the IC50 result in series [1], in series [2], in series [3] (platelet), in series [4], in series [5] and in series [6] was “Not Active” each time. Besides, the IC50 result in series [7] and in series [8] was “Not Active” throughout. Besides, the Ki entry in series [1], in series [2], in series [3] (platelet), in series [4], in series [5] and in series [6] was “Not Active” each time. Also, the Ki result in series [7] and in series [8] was “Not Active” in each case.
As to THIMEROSAL, the IC50 entry in series [1], in series [2], in series [3] (platelet), in series [4], in series [5] and in series [6] was “Not Active” throughout. The IC50 entry in series [7] and in series [8] was “Not Active” each time. Also, the Ki entry in series [1], in series [2], in series [3] (platelet), in series [4], in series [5] and in series [6] was “Not Active” throughout. Also, the Ki entry in series [7] and in series [8] was “Not Active” throughout.

For the origin of these results see ChEMBL document CHEMBL1909046, “DrugMatrix in vitro pharmacology data”.
